Values after ≈ are worked out from the molar mass of the structure shown. Like-named read-outs stand apart in the source and are kept apart here.
Experiments:
[1] = tested on: Staphylococcus aureus Smith; test: MIC, serial dilution on nutrient agar; assay type: cell-based; conditions: 37° C., 18 hours
[2] = tested on: Staphylococcus aureus APO1; test: MIC, serial dilution on nutrient agar; assay type: cell-based; conditions: APO1, 18 h
[3] = tested on: Staphylococcus epidermidis 109; test: MIC, serial dilution on nutrient agar; assay type: cell-based; conditions: Staphylococcus epidermidis, 109, 18 h
[4] = tested on: Mycrococcus flavus FDA 16; test: MIC, serial dilution on nutrient agar; assay type: cell-based; conditions: 18 h
Sarcina lutea PCI 1001 = test: MIC, serial dilution on nutrient agar; assay type: cell-based; conditions: Micrococcus luteus
Bacillus anthracis = test: microbe, parasite or virus in culture; assay type: cell-based; conditions: 18 h
[5] = tested on: Bacillus subtilis PCI 219; test: MIC, serial dilution on nutrient agar; assay type: cell-based; conditions: PCI219, 37° C., 18 hours
[6] = tested on: Bacillus subtilis NRRL B-558; test: MIC, serial dilution on nutrient agar; assay type: cell-based; conditions: NRRLB558, 37° C., 18 hours
[7] = tested on: Bacillus cereus ATCC 10702; test: MIC, serial dilution on nutrient agar; assay type: cell-based
[8] = tested on: Corynebacterium bovis 1810; test: MIC, serial dilution on nutrient agar; assay type: cell-based
[9] = tested on: Mycobacterium smegmatis ATCC 607; test: MIC, serial dilution on nutrient agar; assay type: cell-based; conditions: Mycolicibacterium smegmatis, ATCC607, 18 h
Escherichia coli NIHJ = test: MIC, serial dilution on nutrient agar; assay type: cell-based; conditions: 18 h
Escherichia coli K-12 = test: MIC, serial dilution on nutrient agar; assay type: cell-based; conditions: K12, 18 h
Escherichia coli K-12 R5 = test: microbe, parasite or virus in culture; assay type: cell-based; conditions: K12R5, 18 h
[10] = tested on: Escherichia coli K-12 R 388; test: MIC, serial dilution on nutrient agar; assay type: cell-based; conditions: K12R388, 18 h
[11] = tested on: Escherichia coli K-12 ML 1410; test: MIC, serial dilution on nutrient agar; assay type: cell-based
[12] = tested on: Escherichia coli K-12 1410 R81; test: MIC, serial dilution on nutrient agar; assay type: cell-based; conditions: K121410R81, 18 h
[13] = tested on: Escherichia coli K-12 LA 290 R55; test: microbe, parasite or virus in culture; assay type: cell-based; conditions: K12LA290R55, 18 h
[14] = tested on: Escherichia coli K-12 LA 290 R56; test: microbe, parasite or virus in culture; assay type: cell-based; conditions: K12LA290R56, 18 h
[15] = tested on: Escherichia coli K-12 LA 290 R64; test: MIC, serial dilution on nutrient agar; assay type: cell-based; conditions: K12LA290R64, 18 h
Escherichia coli W677 = test: MIC, serial dilution on nutrient agar; assay type: cell-based; conditions: W677, 18 h
[16] = tested on: Escherichia coli JR66/W677; test: MIC, serial dilution on nutrient agar; assay type: cell-based
Escherichia coli JR255 = test: microbe, parasite or virus in culture; assay type: cell-based; conditions: JR255, 18 h
[17] = tested on: Klebsiella pneumoniae 22 #3038; test: MIC, serial dilution on nutrient agar; assay type: cell-based
[18] = tested on: Shigella dysenteriae JS11910; test: MIC, serial dilution on nutrient agar; assay type: cell-based; conditions: JS11910, 18 h
Salmonella typhi F63 = test: MIC, serial dilution on nutrient agar; assay type: cell-based; conditions: Salmonella enterica, 18 h
[19] = tested on: Salmonella enteritidis 1891; test: MIC, serial dilution on nutrient agar; assay type: cell-based; conditions: Salmonella enterica
Proteus rettgeri GN311 = test: MIC, serial dilution on nutrient agar; assay type: cell-based; conditions: Providencia rettgeri
Proteus rettgeri GN466 = test: MIC, serial dilution on nutrient agar; assay type: cell-based; conditions: Providencia rettgeri
Providencia Pv 16 = test: MIC, serial dilution on nutrient agar; assay type: cell-based; conditions: PV16, nutrient agar, 37° C., 18 hours, read-out: MIC
[20] = tested on: Pseudomonas aeruginosa A3; test: MIC, serial dilution on nutrient agar; assay type: cell-based
[21] = tested on: Pseudomonas aeruginosa No. 12; test: MIC, serial dilution on nutrient agar; assay type: cell-based; conditions: NO.12, nutrient agar, 37° C., 18 hours, read-out: MIC
[22] = tested on: Pseudomonas aeruginosa H9; test: MIC, serial dilution on nutrient agar; assay type: cell-based; conditions: H9, 18 h
[23] = tested on: Pseudomonas aeruginosa H11; test: MIC, serial dilution on nutrient agar; assay type: cell-based; conditions: H11, 18 h
[24] = tested on: Pseudomonas aeruginosa TI-13; test: MIC, serial dilution on nutrient agar; assay type: cell-based
[25] = tested on: Pseudomonas aeruginosa 99; test: MIC, serial dilution on nutrient agar; assay type: cell-based; conditions: Pseudomonas aeruginosa, 99; nutrient agar, 37° C., 18 hours; read-out: MIC
[26] = tested on: Pseudomonas aeruginosa B-13; test: MIC, serial dilution on nutrient agar; assay type: cell-based; conditions: B13, nutrient agar, 37° C., 18 hours, read-out: MIC
[27] = tested on: Pseudomonas aeruginosa PST1; test: MIC, serial dilution on nutrient agar; assay type: cell-based
[28] = tested on: Pseudomonas aeruginosa ROS134/PU21; test: microbe, parasite or virus in culture; assay type: cell-based; conditions: ROS134/PU21, 18 h
[29] = tested on: Pseudomonas aeruginosa K-Ps102; test: MIC, serial dilution on nutrient agar; assay type: cell-based; conditions: KPS102, nutrient agar, 37° C., 18 hours, read-out: MIC
intravenous LD50 in mice = conditions: mouse, in vivo, estimated
oto-toxicity = conditions: compounds of this invention
[30] = nutrient agar, 37° C., 18 hours, read-out: MIC

In the case of `C[C@@H]1C[C@H](N)[C@@H](O)[C@@H](O[C@@H]2[C@@H](O)[C@H](O[C@H]3O[C@H](CN)CC[C@H]3N)[C@@H](N)C[C@H]2NC(=O)[C@@H](O)CCN)O1` [AHB-4",6"-DDKB, 1-N-(L-4-amino-2-hydroxybutyryl)-4",6"-dideoxydibekacin], the MIC [1] is reported as < 0.2 µg/mL, the MIC [2] is reported as 1.56 µg/mL (≈ 3 µM) and the MIC [3] is reported as 1.56 µg/mL (≈ 3 µM). For the same compound, the MIC [4] was 1.56 µg/mL (≈ 3 µM), the MIC (Sarcina lutea PCI 1001; PCI1001, 18 h) was 3.13 µg/mL (≈ 6.01 µM) and the MIC (Bacillus anthracis) was < 0.2 µg/mL. The MIC [5] was < 0.2 µg/mL, the MIC [6] was < 0.2 µg/mL and the MIC ([7]; ATCC10702, 18 h) was 1.56 µg/mL (≈ 3 µM). For the same compound, the MIC ([8]; Corynebacterium bovis, 1810, 18 h) was 6.25 µg/mL (≈ 12 µM), the MIC [9] was 0.39 µg/mL (≈ 0.749 µM) and the MIC (Escherichia coli NIHJ) was 1.56 µg/mL (≈ 3 µM). It also gave an MIC (Escherichia coli K-12) of 1.56 µg/mL (≈ 3 µM), an MIC (Escherichia coli K-12 R5) of 100 µg/mL (≈ 192 µM) and an MIC [10] of 0.78 µg/mL (≈ 1.5 µM). For the same compound, the MIC ([11]; K12ML1410, 18 h) was 1.56 µg/mL (≈ 3 µM), the MIC [12] was 1.56 µg/mL (≈ 3 µM) and the MIC [13] was 1.56 µg/mL (≈ 3 µM). The MIC [14] was 1.56 µg/mL (≈ 3 µM), the MIC [15] was 0.78 µg/mL (≈ 1.5 µM) and the MIC (Escherichia coli W677) was 1.56 µg/mL (≈ 3 µM). It also gave an MIC ([16]; JR66/W677, 18 h) of 3.13 µg/mL (≈ 6.01 µM), an MIC (Escherichia coli JR255) of 1.56 µg/mL (≈ 3 µM) and an MIC ([17]; 18 h) of 3.13 µg/mL (≈ 6.01 µM). For the same compound, the MIC [18] was 3.13 µg/mL (≈ 6.01 µM), the MIC (Salmonella typhi F63) was 0.39 µg/mL (≈ 0.749 µM) and the MIC ([19]; 18 h) was 6.25 µg/mL (≈ 12 µM). For the same compound, the MIC (Proteus rettgeri GN311; GN311, nutrient agar, 37° C., 18 hours, read-out: MIC) was 25 µg/mL (≈ 48 µM), the MIC (Proteus rettgeri GN466; GN466, 18 h) was 3.13 µg/mL (≈ 6.01 µM) and the MIC (Providencia Pv 16) was 25 µg/mL (≈ 48 µM). For the same compound, the MIC ([20]; A3, 18 h) was 1.56 µg/mL (≈ 3 µM), the MIC [21] was 12.5 µg/mL (≈ 24 µM) and the MIC [22] was 6.25 µg/mL (≈ 12 µM). For the same compound, the MIC [23] was 50 µg/mL (≈ 96 µM), the MIC ([24]; TI13, nutrient agar, 37° C., 18 hours, read-out: MIC) was 25 µg/mL (≈ 48 µM) and the MIC [25] was 12.5 µg/mL (≈ 24 µM). The MIC [26] was 12.5 µg/mL (≈ 24 µM), the MIC ([27]; PST1, nutrient agar, 37° C., 18 hours, read-out: MIC) was 25 µg/mL (≈ 48 µM) and the MIC [28] was > 100 µg/mL. The MIC [29] was 12.5 µg/mL (≈ 24 µM), the LD50 (intravenous LD50 in mice) was > 80 mg/kg and the oto-toxicity (oto-toxicity) was “low oto-toxicity”.

In the case of `C[C@H]1O[C@H](O[C@@H]2[C@@H](O)[C@H](O[C@H]3O[C@H](CN)CC[C@H]3N)[C@@H](N)C[C@H]2NC(=O)[C@@H](O)CCN)[C@H](O)[C@@H](N)[C@@H]1O` [AHB-6"-DDKB, 1-N-(L-4-amino-2-hydroxybutyryl)-6"-deoxydibekacin], the MIC [1] is reported as < 0.2 µg/mL, the MIC [2] is reported as 1.56 µg/mL (≈ 2.91 µM) and the MIC [3] is reported as 1.56 µg/mL (≈ 2.91 µM). For the same compound, the MIC [4] was 1.56 µg/mL (≈ 2.91 µM), the MIC (Sarcina lutea PCI 1001; PCI1001, nutrient agar, 37° C., 18 hours, read-out: MIC) was 3.13 µg/mL (≈ 5.83 µM) and the MIC (Bacillus anthracis) was 0.2 µg/mL (≈ 0.373 µM). For the same compound, the MIC [5] was < 0.2 µg/mL, the MIC [6] was < 0.2 µg/mL and the MIC ([7]; ATCC10702, nutrient agar, 37° C., 18 hours, read-out: MIC) was 3.13 µg/mL (≈ 5.83 µM). It also gave an MIC ([8]; Corynebacterium bovis, 1810, nutrient agar, 37° C., 18 hours, read-out: MIC) of 3.13 µg/mL (≈ 5.83 µM), an MIC [9] of 0.39 µg/mL (≈ 0.727 µM) and an MIC (Escherichia coli NIHJ) of 1.56 µg/mL (≈ 2.91 µM). The MIC (Escherichia coli K-12) was 1.56 µg/mL (≈ 2.91 µM), the MIC (Escherichia coli K-12 R5) was 50 µg/mL (≈ 93.2 µM) and the MIC [10] was 0.78 µg/mL (≈ 1.45 µM). The MIC ([11]; K12ML1410, nutrient agar, 37° C., 18 hours, read-out: MIC) was 3.13 µg/mL (≈ 5.83 µM), the MIC [12] was 1.56 µg/mL (≈ 2.91 µM) and the MIC [13] was 3.13 µg/mL (≈ 5.83 µM). It also gave an MIC [14] of 1.56 µg/mL (≈ 2.91 µM), an MIC [15] of 1.56 µg/mL (≈ 2.91 µM) and an MIC (Escherichia coli W677) of 1.56 µg/mL (≈ 2.91 µM). The MIC ([16]; JR66/W677, nutrient agar, 37° C., 18 hours, read-out: MIC) was 3.13 µg/mL (≈ 5.83 µM), the MIC (Escherichia coli JR255) was 1.56 µg/mL (≈ 2.91 µM) and the MIC [17, 30] was 3.13 µg/mL (≈ 5.83 µM). It also gave an MIC [18] of 6.25 µg/mL (≈ 11.6 µM), an MIC (Salmonella typhi F63) of 0.39 µg/mL (≈ 0.727 µM) and an MIC [19, 30] of 3.13 µg/mL (≈ 5.83 µM). For the same compound, the MIC (Proteus rettgeri GN311; GN311, 18 h) was 50 µg/mL (≈ 93.2 µM), the MIC (Proteus rettgeri GN466; GN466, nutrient agar, 37° C., 18 hours, read-out: MIC) was 12.5 µg/mL (≈ 23.3 µM) and the MIC (Providencia Pv 16) was 25 µg/mL (≈ 46.6 µM). The MIC ([20]; A3, nutrient agar, 37° C., 18 hours, read-out: MIC) was 3.13 µg/mL (≈ 5.83 µM), the MIC [21] was 25 µg/mL (≈ 46.6 µM) and the MIC [22] was 6.25 µg/mL (≈ 11.6 µM). It also gave an MIC [23] of 50 µg/mL (≈ 93.2 µM), an MIC ([24]; TI13, 18 h) of 6.25 µg/mL (≈ 11.6 µM) and an MIC [25] of 12.5 µg/mL (≈ 23.3 µM). The MIC [26] was 25 µg/mL (≈ 46.6 µM), the MIC ([27]; PST1, 18 h) was 50 µg/mL (≈ 93.2 µM) and the MIC [28] was > 100 µg/mL. For the same compound, the MIC [29] was 12.5 µg/mL (≈ 23.3 µM), the LD50 (intravenous LD50 in mice) was > 80 mg/kg and the oto-toxicity (oto-toxicity) was “low oto-toxicity”.
